System: Normal human keratinocytes (NHK)
Experiment: Carbonylation test (OxyELISA) after UV/visible irradiation
Type: cell-based
Settings: SBE 200 nM; Tocopherol acetate 20 μM; 2 hours contact; 120 kJ/m^2; P-value <0.01
Protocol: By following the same UV/visible irradiation protocol as the one used above for the comet assay, the rate of carbonylation of keratinocytes in the presence of SBE and tocopherol acetate was measured.
• Normal human keratinocytes (NHK) (T6)-10^6 cells/condition • Conditions: • 1% THF solvent control • SBE 200 nM • Tocopherol acetate 20 μM • Each condition is carried out in triplicate. • Contact with KHNs in different experimental conditions for 2 hours. • UVB/UVA/Visible irradiation at 120 kJ/m^2 of the cells placed in PBS by a Suntest CPS+ solar simulator (Atlas Material Testing Technology) at 4° C. Negative controls are maintained at 4° C. for the same duration as the irradiation. • Trypsination of the cells post irradiation. Rinsing of the iced PBS. Elimination of the PBS and immediate freezing of the cell pellets at −80° C. 2—Measurement of the Carbonylation • The proteins are extracted after lysis of the cells and their concentration is measured using the Bradford test. • The proteins are derived by 2,4-dinitrophenylhydrazine (DNPH), which binds to the carbonyl groups. • The carbonylation rate is then measured on ELISA plates (OxyELISA™ Oxidized Protein Quantitation Kit, Millipore) at 450 nm. Results

CC(=O)Oc1c(C)c(C)c2c(c1C)CCC(C)(CCC[C@H](C)CCC[C@H](C)CCCC(C)C)O2 (stereo partly shown) [tocopherol acetate]
increase of the rate of carbonylation of keratinocyte proteins after UV/visible irradiation: decreases significantly

— patent US10406097B2, “Extract of Arthrobacter agilis for use in particular in cosmetics” (priority 2013, dated 2019)
